Columns and labels:
human washed platelets = assay: sAPPα and sAPPβ released from activated human washed platelets, LC/ESI/MS/MS; format: cell-based; details: 300 μl platelets at 600,000 cells/μl activated with 500 nM
Description: FIG. 10: Detection of the two sAPP isoforms released from human platelets. 300 μl of human washed platelets at 600,000 cells/μl were activated with 500 nM U46,619. sAPPs released in the medium were immunoprecipitated and digested with trypsin. The peptides were analyzed as described above. The product ions y6 and y4 were monitored for TEEISEVK and MDAEFR, respectively. Chromatograms of the two product ions are shown for each sAPP isoform.
Internal standards for each peptide were obtained by incorporation of a [^13C] labeled amino acid. Human washed platelets (600,000 cells/Ml, 300 μl) were activated with 500 nM of U46,619 and the release of sAPPs was analyzed after centrifuging the cells at 2,000×g for 15 min. After immunoprecipitation of the sAPPs and digestion with trypsin, 150 pg of MDAE[^13C]-FR and TEE[^13C]-ISEVK were added as internal standards and the samples were analyzed by LC/ESI/MS/MS using the LCQ Deca XP ion trap mass spectrometer (Thermo Scientific, Waltham, Mass.).

human platelets = assay: sAPPα release by human platelets, Western blot of supernatant (antibody 6E10); format: cell-based; details: for sAPPα release by washed platelets: collagen up to 5 μg/ml, ADP up to 25 μM
Description: FIG. 2: sAPPα release is mediated through G protein-coupled receptors. Human platelets (600,000 cells/μl) were incubated with 20 μM arachidonic acid (AA), U46,619 (500 nM), PAR1-AP (100 μM), PAR4-AP (200 μM) or thrombin (1 U/ml) for 1 h. The cells were then pelleted at 10,000×g for 15 min and the levels of sAPPα in the supernatant were determined by Western blot analysis using the antibody 6E10 (Calbiochem).
FIG. 3: The effect of arachidonic acid is mediated by the TP receptor. Left panel: Human platelets were incubated by increasing concentrations of U46,619 and sAPPa was analyzed in the supernatant as described for FIG. 2. Right panel: Human platelets were pre-incubated for 15 min with increasing concentration of an antagonist of the TP receptor, SQ29,548, prior addition of 7.5 μM of arachidonic acid. sAPPα release was analyzed by western blot.
FIG. 4: Activation of PGI2 receptor inhibits sAPPa release triggered by U46,619. Human platelets were pre-incubated for 30 min with increasing concentrations of carbaprostacylin prior addition of 500 nM of U46,619. After 1 h the levels of sAPPa in the supernatant were determined by western blot analysis. Protein bands were scanned and the pixels integrated. sAPPa release is expressed as a percent of maximum where no CP was added.
FIG. 5: PGE2 potentiates the effect of a sub-efficacious concentration of arachidonic acid. Washed platelets were pre-incubated for 2 min with increasing concentrations of PGE2 or vehicle prior addition of 0.5 μM of arachidonic acid. After 1 h, sAPPα release in the supernatant was determined by Western blot analysis as described in FIG. 2. Protein bands were scanned and the pixels integrated. sAPPα release is expressed as a percent of the maximum obtained with 7.5 nM PGE2 and 0.5 μM arachidonic acid.
Secretion of sAPPα has been analyzed in human platelets in response to various agonists.

3xTg-AD mice = details: cited from earlier work
[1] = target: T1, M1 muscarinic receptor (M1mAChR) (Homo sapiens, UniProt P11229); details: patients with AD (Nitsch et al., 2000); cited from earlier work
T1 construct: host or cells: patients with AD (endogenous receptor, in vivo)
T1 sequence (P11229 1-460): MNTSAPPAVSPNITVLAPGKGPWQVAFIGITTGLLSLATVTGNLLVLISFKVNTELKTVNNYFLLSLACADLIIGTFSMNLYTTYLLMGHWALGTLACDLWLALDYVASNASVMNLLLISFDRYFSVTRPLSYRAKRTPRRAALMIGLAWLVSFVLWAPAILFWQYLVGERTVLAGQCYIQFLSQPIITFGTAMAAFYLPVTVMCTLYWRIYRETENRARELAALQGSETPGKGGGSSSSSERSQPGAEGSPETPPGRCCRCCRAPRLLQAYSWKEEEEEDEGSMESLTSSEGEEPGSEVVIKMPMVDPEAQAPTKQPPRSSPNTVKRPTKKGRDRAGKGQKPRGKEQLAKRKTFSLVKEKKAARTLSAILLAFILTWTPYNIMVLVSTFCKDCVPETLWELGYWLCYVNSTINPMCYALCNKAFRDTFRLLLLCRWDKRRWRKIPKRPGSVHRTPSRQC

[2] = 3xTg-AD mice (Caccamo et al., 2006)

With `CCCCC[C@H](O)/C=C/[C@@H]1[C@@H](C/C=C\CCCC(=O)O)[C@H]2CO[C@@H]1C2` [U46,619] the “amount of sAPPα released” value (human washed platelets) was 45 pg, the “amount of sAPPβ released” value (human washed platelets) was 41 pg and the “sAPPα release in response to agonist” value (human platelets; human platelets 600,000 cells/μl, 1 h incubation, U46,619 500 nM, PAR1-AP 100 μM, PAR4-AP 200 μM) was “gave the same response as 20 μM of arachidonic acid”. For the same molecule, the “concentration giving maximal response of sAPPα release” value (human platelets; human platelets, increasing concentrations) was 500 nM.
In the case of `CCCCC[C@H](O)/C=C/[C@@H]1[C@H]2C/C(=C/CCCC(=O)O)C[C@H]2C[C@H]1O` [carbaprostacyclin], the “effect on sAPPα release triggered by U46,619” value (human platelets; pre-incubated 30 min with increasing concentrations prior to 500 nM U46,619, 1 h) is reported as “antagonized in a dose-dependent manner the effect of U46,619”.
For `CC[C@@H]1SC2(CCN(C)CC2)NC1=O` [AF267B], the “APP processing via the β-secretase pathway” value (3xTg-AD mice; [2]) is listed as “decreases APP processing via the β-secretase pathway”, the “development of amyloid pathology” value (3xTg-AD mice; [2]) is listed as “decreases development of amyloid pathology” and the “expression of ADAM 17/TACE” value (3xTg-AD mice; Caccamo et al., 2006) is listed as “increases expression of ADAM 17/TACE”.
With `CCCCC[C@H](O)/C=C/[C@H]1[C@H](O)CC(=O)[C@@H]1C/C=C\CCCC(=O)O` [PGE2] the “potentiation of sAPPα release by sub-efficacious arachidonic acid” value (human platelets; concentrations higher than 10 nM, with 0.5 μM arachidonic acid) was “this potentiation effect was reversed”, the “sAPPα release, compound by itself” value (human platelets; highest concentration used, without arachidonic acid) was “had no effect on sAPPα release” and the “potentiation of sAPPα release by sub-efficacious arachidonic acid” value (human platelets; low nanomolar concentrations, pre-incubated 2 min prior to 0.5 μM arachidonic acid, 1 h) was “potentiates sAPPα release”. The “concentration giving maximum sAPPα release with 0.5 μM arachidonic acid” value (human platelets; washed platelets, 0.5 μM arachidonic acid, 1 h) was 7.5 nM.
For `Nc1ncnc2c1ncn2[C@@H]1O[C@H](COP(=O)(O)OP(=O)(O)O)[C@@H](O)[C@H]1O` [ADP], the “sAPPα release by washed platelets” value (human platelets) was “had no effect on sAPPα release”.
With `O=C(O)CCC/C=C\C[C@@H]1[C@H](CNNC(=O)Nc2ccccc2)[C@H]2CC[C@@H]1O2` [SQ29,548] the “effect on sAPPα release triggered by arachidonic acid” value (human platelets; pre-incubated 15 min with increasing concentrations prior to 7.5 μM arachidonic acid) was “antagonized”.
For `CC1OC2(CS1)CN1CCC2CC1` (centres unmarked) [AF102B], the “levels of amyloid in cerebrospinal fluid” value [1] is given as “decrease the levels of amyloid in cerebrospinal fluid”.
For collagen, the “sAPPα release by washed platelets” value (human platelets) was “failed to trigger release of sAPPα”.
With `CCCCC/C=C\C/C=C\C/C=C\C/C=C\CCCC(=O)O` [arachidonic acid] the “concentration giving maximal effect on sAPPα release” value (human platelets; human platelets) was 7.5 µM.

— patent US20100021938A1, “Diagnosis and Prediction of Alzheimer's Disease” (priority 2008, published 2010)
